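GI50: concentration for 50% inhibition of growth. Definition used: TGI = concentration required for complete inhibition of growth.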
How the values were obtained:
Test in all cases: NCI tumour cell line growth inhibition, 384-well format
OVCAR-8 ovarian = tested on: OVCAR-8 ovarian
HL-60(TB) leukemia = tested on: HL-60(TB) leukemia
A549 NSCLC = tested on: A549 NSCLC
ACHN renal = tested on: ACHN renal
UO-31 renal = tested on: UO-31 renal
MOLT-4 leukemia = tested on: MOLT-4 leukemia
RPMI-8226 leukemia = tested on: RPMI-8226 leukemia
SF-539 CNS = tested on: SF-539 CNS
OVCAR-5 ovarian = tested on: OVCAR-5 ovarian
PC-3 prostate = tested on: PC-3 prostate
EKVX NSCLC = tested on: EKVX NSCLC
CCRF-CEM leukemia = tested on: CCRF-CEM leukemia
K-562 leukemia = tested on: K-562 leukemia
SK-MEL-2 melanoma = tested on: SK-MEL-2 melanoma
UACC-62 melanoma = tested on: UACC-62 melanoma
NCI-H522 lung = tested on: NCI-H522 lung
HS 578T breast = tested on: HS 578T breast
MALME-3M melanoma = tested on: MALME-3M melanoma
SW-620 colon = tested on: SW-620 colon
SN12C renal = tested on: SN12C renal
MDA-MB-231 breast = tested on: MDA-MB-231 breast
UACC-257 melanoma = tested on: UACC-257 melanoma
TK-10 renal = tested on: TK-10 renal
SK-MEL-28 melanoma = tested on: SK-MEL-28 melanoma
SNB-19 CNS = tested on: SNB-19 CNS
LOX IMVI melanoma = tested on: LOX IMVI melanoma
MDA-MB-468 breast = tested on: MDA-MB-468 breast
OVCAR-3 ovarian = tested on: OVCAR-3 ovarian
M14 melanoma = tested on: M14 melanoma
SNB-75 CNS = tested on: SNB-75 CNS
RXF 393 renal = tested on: RXF 393 renal
HCT-15 colon = tested on: HCT-15 colon
DU-145 prostate = tested on: DU-145 prostate
OVCAR-4 ovarian = tested on: OVCAR-4 ovarian
BT-549 breast = tested on: BT-549 breast
SF-268 CNS = tested on: SF-268 CNS
NCI-H322M lung = tested on: NCI-H322M lung
NCI-H23 lung = tested on: NCI-H23 lung
HOP-92 NSCLC = tested on: HOP-92 NSCLC
MDA-MB-435 melanoma = tested on: MDA-MB-435 melanoma
HOP-62 NSCLC = tested on: HOP-62 NSCLC
U251 glioblastoma = tested on: U251 glioblastoma
NCI-H226 lung = tested on: NCI-H226 lung
HCC-2998 colon = tested on: HCC-2998 colon
MCF7 breast = tested on: MCF7 breast
IGROV1 ovarian = tested on: IGROV1 ovarian
HT29 colon = tested on: HT29 colon
SF-295 CNS = tested on: SF-295 CNS
CAKI-1 renal = tested on: CAKI-1 renal
NCI-H460 NSCLC = tested on: NCI-H460 NSCLC
A498 renal = tested on: A498 renal
NCI/ADR-RES ovarian = tested on: NCI/ADR-RES ovarian
SR leukemia = tested on: SR leukemia
SK-OV-3 ovarian = tested on: SK-OV-3 ovarian
786-0 renal = tested on: 786-0 renal
T-47D breast = tested on: T-47D breast
SK-MEL-5 melanoma = tested on: SK-MEL-5 melanoma
KM12 colon = tested on: KM12 colon
COLO 205 colon = tested on: COLO 205 colon

CO[C@H](C(=O)[C@@H](O)[C@@H](C)O)[C@@H]1Cc2cc3cc(OC4CC(OC5CC(O)C(O)C(C)O5)C(O)C(C)O4)c(C)c(O)c3c(O)c2C(=O)[C@H]1OC1CC(OC2CC(OC3CC(C)(O)C(O)C(C)O3)C(O)C(C)O2)C(O)C(C)O1 (stereo not given in full)
GI50 (OVCAR-8 ovarian): 15.5 nM | TGI (OVCAR-8 ovarian): 29.9 nM | GI50 (HL-60(TB) leukemia): 14 nM | TGI (HL-60(TB) leukemia): 29.4 nM | GI50 (A549 NSCLC): 30.4 nM | GI50 (ACHN renal): 54.6 nM | TGI (ACHN renal): 294 nM | GI50 (UO-31 renal): 182 nM | TGI (UO-31 renal): 451 nM | TGI (MOLT-4 leukemia): 17.7 nM | GI50 (RPMI-8226 leukemia): 11.1 nM | TGI (RPMI-8226 leukemia): 23.6 nM | GI50 (SF-539 CNS): 13.6 nM | TGI (SF-539 CNS): 27.1 nM | GI50 (OVCAR-5 ovarian): 19.5 nM | TGI (OVCAR-5 ovarian): 43.5 nM | GI50 (PC-3 prostate): 32.9 nM | TGI (PC-3 prostate): 220 nM | GI50 (EKVX NSCLC): 75.1 nM | TGI (EKVX NSCLC): 11000 nM | GI50 (CCRF-CEM leukemia): 33.9 nM | TGI (CCRF-CEM leukemia): 110 nM | GI50 (K-562 leukemia): 18.8 nM | TGI (K-562 leukemia): 40.4 nM | GI50 (SK-MEL-2 melanoma): 32.9 nM | TGI (SK-MEL-2 melanoma): 47.9 nM | TGI (UACC-62 melanoma): 21.6 nM | GI50 (NCI-H522 lung): 13 nM | TGI (NCI-H522 lung): 26.8 nM | GI50 (HS 578T breast): 13.2 nM | TGI (HS 578T breast): 27.7 nM | GI50 (MALME-3M melanoma): 14.1 nM | TGI (MALME-3M melanoma): 28 nM | GI50 (SW-620 colon): 32.4 nM | GI50 (SN12C renal): 15.2 nM | TGI (SN12C renal): 36.9 nM | GI50 (MDA-MB-231 breast): 16.6 nM | TGI (MDA-MB-231 breast): 37.2 nM | GI50 (UACC-257 melanoma): 18.5 nM | TGI (UACC-257 melanoma): 34.5 nM | GI50 (TK-10 renal): 50.3 nM | GI50 (SK-MEL-28 melanoma): 16.4 nM | TGI (SK-MEL-28 melanoma): 30.5 nM | GI50 (SNB-19 CNS): 23.7 nM | GI50 (LOX IMVI melanoma): 16.9 nM | TGI (LOX IMVI melanoma): 31.2 nM | GI50 (MDA-MB-468 breast): 16.3 nM | TGI (MDA-MB-468 breast): 32.4 nM | GI50 (OVCAR-3 ovarian): 20.3 nM | TGI (OVCAR-3 ovarian): 73.4 nM | GI50 (M14 melanoma): 18 nM | TGI (M14 melanoma): 39.8 nM | GI50 (SNB-75 CNS): 11.8 nM | TGI (SNB-75 CNS): 30.4 nM | GI50 (RXF 393 renal): 10.7 nM | TGI (RXF 393 renal): 23.1 nM | GI50 (HCT-15 colon): 139 nM | TGI (HCT-15 colon): 970 nM | GI50 (DU-145 prostate): 28.8 nM | GI50 (OVCAR-4 ovarian): 31.6 nM | TGI (OVCAR-4 ovarian): 371 nM | GI50 (BT-549 breast): 10.6 nM | TGI (BT-549 breast): 23.7 nM | GI50 (SF-268 CNS): 17.2 nM | TGI (SF-268 CNS): 965 nM | GI50 (NCI-H322M lung): 17.4 nM | TGI (NCI-H322M lung): 42.2 nM | GI50 (NCI-H23 lung): 18.4 nM | TGI (NCI-H23 lung): 35.9 nM | GI50 (HOP-92 NSCLC): 31.7 nM | GI50 (MDA-MB-435 melanoma): 18.9 nM | TGI (MDA-MB-435 melanoma): 38.4 nM | GI50 (HOP-62 NSCLC): 13.7 nM | TGI (HOP-62 NSCLC): 29.5 nM

Cc1sc2c(c1C)C(c1ccc(Cl)cc1)=N[C@@H](CC(=O)OC(C)(C)C)c1nnc(C)n1-2
GI50 (OVCAR-8 ovarian): 91.7 nM | TGI (OVCAR-8 ovarian): 1750 nM | GI50 (HL-60(TB) leukemia): 23.3 nM | TGI (HL-60(TB) leukemia): 73.2 nM | GI50 (U251 glioblastoma): 1170 nM | TGI (U251 glioblastoma): 17900 nM | GI50 (A549 NSCLC): 177 nM | TGI (A549 NSCLC): 13600 nM | GI50 (ACHN renal): 560 nM | TGI (ACHN renal): 16900 nM | GI50 (NCI-H226 lung): 106 nM | TGI (NCI-H226 lung): 12300 nM | GI50 (UO-31 renal): 837 nM | TGI (UO-31 renal): 20600 nM | GI50 (HCC-2998 colon): 94.6 nM | TGI (HCC-2998 colon): 394 nM | GI50 (MOLT-4 leukemia): 201 nM | TGI (MOLT-4 leukemia): 1170 nM | GI50 (RPMI-8226 leukemia): 26.8 nM | TGI (RPMI-8226 leukemia): 74.7 nM | GI50 (SF-539 CNS): 286 nM | TGI (SF-539 CNS): 12900 nM | GI50 (OVCAR-5 ovarian): 183 nM | TGI (OVCAR-5 ovarian): 14500 nM | GI50 (MCF7 breast): 38.3 nM | TGI (MCF7 breast): 10300 nM | GI50 (PC-3 prostate): 744 nM | TGI (PC-3 prostate): 16500 nM | GI50 (IGROV1 ovarian): 160 nM | TGI (IGROV1 ovarian): 1190 nM | GI50 (EKVX NSCLC): 4610 nM | TGI (EKVX NSCLC): 20500 nM | GI50 (CCRF-CEM leukemia): 230 nM | TGI (CCRF-CEM leukemia): 1680 nM | GI50 (K-562 leukemia): 139 nM | TGI (K-562 leukemia): 13500 nM | GI50 (UACC-62 melanoma): 43 nM | TGI (UACC-62 melanoma): 10500 nM | GI50 (NCI-H522 lung): 56 nM | TGI (NCI-H522 lung): 434 nM | GI50 (HT29 colon): 82 nM | TGI (HT29 colon): 12600 nM | GI50 (HS 578T breast): 30.7 nM | TGI (HS 578T breast): 266 nM | GI50 (MALME-3M melanoma): 96.7 nM | TGI (MALME-3M melanoma): 2330 nM | GI50 (SW-620 colon): 10100 nM | TGI (SW-620 colon): 21800 nM | GI50 (SN12C renal): 3260 nM | TGI (SN12C renal): 19900 nM | GI50 (MDA-MB-231 breast): 57.7 nM | TGI (MDA-MB-231 breast): 13700 nM | GI50 (UACC-257 melanoma): 58.1 nM | TGI (UACC-257 melanoma): 1940 nM | GI50 (TK-10 renal): 91.5 nM | TGI (TK-10 renal): 8290 nM | GI50 (SK-MEL-28 melanoma): 448 nM | TGI (SK-MEL-28 melanoma): 16700 nM | GI50 (SF-295 CNS): 815 nM | TGI (SF-295 CNS): 17300 nM | GI50 (SNB-19 CNS): 371 nM | TGI (SNB-19 CNS): 16200 nM | GI50 (LOX IMVI melanoma): 57.3 nM | TGI (LOX IMVI melanoma): 223 nM | GI50 (MDA-MB-468 breast): 37.3 nM | TGI (MDA-MB-468 breast): 109 nM | GI50 (CAKI-1 renal): 53.9 nM | TGI (CAKI-1 renal): 13000 nM | GI50 (OVCAR-3 ovarian): 86 nM | TGI (OVCAR-3 ovarian): 1070 nM | GI50 (M14 melanoma): 447 nM | TGI (M14 melanoma): 17500 nM | GI50 (SNB-75 CNS): 634 nM | TGI (SNB-75 CNS): 19100 nM | GI50 (RXF 393 renal): 1140 nM | TGI (RXF 393 renal): 17500 nM | GI50 (HCT-15 colon): 48.4 nM | TGI (HCT-15 colon): 371 nM | GI50 (NCI-H460 NSCLC): 1040 nM | TGI (NCI-H460 NSCLC): 15000 nM | GI50 (A498 renal): 197 nM | TGI (A498 renal): 9700 nM | GI50 (NCI/ADR-RES ovarian): 80.5 nM | TGI (NCI/ADR-RES ovarian): 839 nM | GI50 (SR leukemia): 27.3 nM | TGI (SR leukemia): 252 nM | GI50 (DU-145 prostate): 2220 nM | TGI (DU-145 prostate): 20100 nM | GI50 (OVCAR-4 ovarian): 42.1 nM | TGI (OVCAR-4 ovarian): 254 nM | GI50 (BT-549 breast): 51 nM | TGI (BT-549 breast): 869 nM | GI50 (SK-OV-3 ovarian): 142 nM | TGI (SK-OV-3 ovarian): 6780 nM | GI50 ([…]-0 renal): 118 nM | TGI (786-0 renal): 13800 nM | GI50 (SF-268 CNS): 984 nM | TGI (SF-268 CNS): 19300 nM | GI50 (NCI-H322M lung): 241 nM | TGI (NCI-H322M lung): 14600 nM | GI50 (T-47D breast): 293 nM | TGI (T-47D breast): 13200 nM | GI50 (NCI-H23 lung): 148 nM | TGI (NCI-H23 lung): 3500 nM | GI50 (SK-MEL-5 melanoma): 96.4 nM | TGI (SK-MEL-5 melanoma): 1910 nM | GI50 (KM12 colon): 322 nM | TGI (KM12 colon): 13200 nM | GI50 (HOP-92 NSCLC): 74.4 nM | TGI (HOP-92 NSCLC): 13600 nM | GI50 (MDA-MB-435 melanoma): 599 nM | TGI (MDA-MB-435 melanoma): 10700 nM | GI50 (HOP-62 NSCLC): 71.9 nM | TGI (HOP-62 NSCLC): 10900 nM | GI50 (COLO 205 colon): 100 nM | TGI (COLO 205 colon): 11500 nM

Reference: PubChem BioAssay (NCI)
